Data on 17 compounds can be found in ChEMBL document CHEMBL1154010, “Aziridine alkaloids as potential therapeutic agents” (Eur J Med Chem, 2009).

pIC50, pKi: −log10 of the molar value. ≈ marks a conversion by molar mass, not a printed value. A value given as a limit tells only on which side of the number the result lay.

For one series, the system named is HL-60. As to the kind of experiment: Cytotoxicity against human HL60 cells. Type of series: functional, cell-based.
The test system of the next series is L1210. Nature of the series: Cytotoxicity against mouse L1210 cells. In kind it is functional, cell-based.
Series [1] concerns CCRF S-180. Nature of the series: Antitumor activity against mouse S180 cells implanted in ip dosed ddY mouse assessed as tumor volume after 7 days. In kind it is functional.
A further series has as its system Mus musculus. Nature of the series: Toxicity in ip dosed ddY mouse bearing mouse S180 cells. In kind it is organism-based, CCRF S-180. To be noted: in vivo.
Series [2] has as its system Bacillus subtilis. As to the kind of experiment: Antimicrobial activity against Bacillus subtilis NRRL B-558. In kind it is functional.
For the next series, the system named is Shigella flexneri. As to the kind of experiment: Antimicrobial activity against Shigella flexneri 4bJS11811. Type of series: functional.
The test system of series [3] is Staphylococcus aureus. Nature of the series: Antimicrobial activity against Staphylococcus aureus FDA209P. Type of series: functional.
The next series concerns Bacillus anthracis. As to the kind of experiment: Antimicrobial activity against Bacillus anthracis. Type of series: functional.
In the next series the test system is Corynebacterium bovis. Nature of the series: Antimicrobial activity against Corynebacterium bovis 1810. Type of series: functional.
Series [4] relates to Staphylococcus aureus. Nature of the series: Antimicrobial activity against Staphylococcus aureus Smith. In kind it is functional.
The test system of series [5] is Salmonella enterica subsp. enterica. As to the kind of experiment: Antimicrobial activity against Salmonella typhi T-63. In kind it is functional, Salmonella enterica subsp. enterica serovar Typhi.
Series [6] has as its system Bacillus subtilis. Nature of the series: Antimicrobial activity against Bacillus subtilis PCI 219. Type of series: functional.
The subject of series [7] is Micrococcus luteus. As to the kind of experiment: Antimicrobial activity against Micrococcus luteus PCI 1001. In kind it is functional.
The test system of series [8] is Providencia rettgeri. Nature of the series: Antimicrobial activity against Providencia rettgeri GN466. Type of series: functional.
The subject of series [9] is Escherichia coli. As to the kind of experiment: Antimicrobial activity against Escherichia coli BE1126. In kind it is functional.
The next series deals with Klebsiella pneumoniae. As to the kind of experiment: Antimicrobial activity against Klebsiella pneumoniae PCI602. In kind it is functional.
Series [10] relates to Escherichia coli. Nature of the series: Antimicrobial activity against Escherichia coli BEM11. In kind it is functional.
Series [11] has as its system Pseudomonas aeruginosa. Nature of the series: Antimicrobial activity against Pseudomonas aeruginosa A3. In kind it is functional.
Another series deals with Proteus vulgaris. As to the kind of experiment: Antimicrobial activity against Proteus vulgaris OX19. In kind it is functional.
In series [12] the test system is Salmonella enterica subsp. enterica. As to the kind of experiment: Antimicrobial activity against Salmonella enteritidis 1891. In kind it is functional, Salmonella enterica subsp. enterica serovar Enteritidis.
In series [13] the test system is Micrococcus luteus. Nature of the series: Antimicrobial activity against Micrococcus luteus FDA16. In kind it is functional.
Another series has as its system Bacillus cereus. As to the kind of experiment: Antimicrobial activity against Bacillus cereus ATCC 10702. In kind it is functional.
Series [14] deals with Escherichia coli. Nature of the series: Antimicrobial activity against Escherichia coli BE1186. Type of series: functional.
Series [15] concerns Micrococcus luteus. Nature of the series: Antimicrobial activity against Micrococcus luteus IFO 3333. Type of series: functional.
The test system of series [16] is Mycolicibacterium smegmatis. As to the kind of experiment: Antimicrobial activity against Mycobacterium smegmatis ATCC 607. Type of series: functional.
The subject of series [17] is Escherichia coli. Nature of the series: Antimicrobial activity against Escherichia coli K-12 MLI629. Type of series: functional.
The test system of series [18] is Salmonella enterica subsp. enterica. As to the kind of experiment: Antimicrobial activity against Salmonella typhi JS11746. In kind it is functional, Salmonella enterica subsp. enterica serovar Typhi.
The test system of series [19] is Staphylococcus aureus. As to the kind of experiment: Antimicrobial activity against Staphylococcus aureus MS9610. Type of series: functional.
In series [20] the test system is Staphylococcus aureus. Nature of the series: Antimicrobial activity against methicillin-resistant Staphylococcus aureus isolate 5. In kind it is functional.
Another series concerns Shigella dysenteriae. Nature of the series: Antimicrobial activity against Shigella dysenteriae JS1 1910. In kind it is functional.
The subject of series [21] is Pseudomonas aeruginosa. As to the kind of experiment: Antimicrobial activity against Pseudomonas aeruginosa GN315. Type of series: functional.
Series [22] concerns Escherichia coli. As to the kind of experiment: Antimicrobial activity against Escherichia coli K-12. Type of series: functional.
The test system of series [23] is Escherichia coli. As to the kind of experiment: Antimicrobial activity against Escherichia coli NIHJ. In kind it is functional.
For a further series, the system named is Proteus mirabilis. Nature of the series: Antimicrobial activity against Proteus mirabilis IFM OM-9. Type of series: functional.
The subject of a further series is Mycolicibacterium vaccae. Nature of the series: Antimicrobial activity against Mycobacterium vaccae ATCC 15483. Type of series: functional.
Series [24] deals with Staphylococcus aureus. As to the kind of experiment: Antimicrobial activity against methicillin-resistant Staphylococcus aureus isolate 17. In kind it is functional.
The test system of series [25] is Mycolicibacterium smegmatis. Nature of the series: Antimicrobial activity against rifamycin-resistant Mycobacterium smegmatis ATCC 607. Type of series: functional.
For series [26], the system named is Providencia rettgeri. As to the kind of experiment: Antimicrobial activity against Providencia rettgeri GN311. In kind it is functional.
The target of a further series is Aspartase (Escherichia coli, UniProt Q59388). As to the kind of experiment: Inhibition of Escherichia coli aspartase.
For series [27], the target named is Fumarate hydratase, mitochondrial (Sus scrofa, UniProt P10173). As to the kind of experiment: Inhibition of pig heart fumarase.
The next series relates to HCT-116. Nature of the series: Cytotoxicity against human HCT116 cells. In kind it is functional, cell-based.
Series [28] can be described thus: Antitumor activity against mouse EAC cells xenografted in rat. Type of series: functional, Ehrlich.
Series [29] has as its system CCRF S-180. Nature of the series: Antitumor activity against mouse S180 cells xenografted in rat. In kind it is functional.
For the next series, the system named is L5178Y. Nature of the series: Cytotoxicity against mouse L5178Y cells. In kind it is functional, cell-based.

Fumarate hydratase, mitochondrial, sequence (P10173 whole entry): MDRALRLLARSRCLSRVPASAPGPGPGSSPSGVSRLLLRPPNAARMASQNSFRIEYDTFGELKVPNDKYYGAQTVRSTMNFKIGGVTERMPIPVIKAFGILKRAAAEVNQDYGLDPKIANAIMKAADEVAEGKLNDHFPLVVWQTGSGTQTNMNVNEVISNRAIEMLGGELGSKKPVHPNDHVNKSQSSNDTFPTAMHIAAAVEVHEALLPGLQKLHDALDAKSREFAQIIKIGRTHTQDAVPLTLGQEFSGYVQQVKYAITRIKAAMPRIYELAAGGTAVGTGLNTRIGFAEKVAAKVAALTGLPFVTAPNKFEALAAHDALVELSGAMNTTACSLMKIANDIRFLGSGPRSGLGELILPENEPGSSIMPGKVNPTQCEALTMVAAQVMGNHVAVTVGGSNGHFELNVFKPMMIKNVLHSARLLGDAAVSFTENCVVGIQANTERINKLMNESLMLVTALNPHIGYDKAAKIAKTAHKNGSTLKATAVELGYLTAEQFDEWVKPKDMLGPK
Aspartase, sequence (Q59388 whole entry): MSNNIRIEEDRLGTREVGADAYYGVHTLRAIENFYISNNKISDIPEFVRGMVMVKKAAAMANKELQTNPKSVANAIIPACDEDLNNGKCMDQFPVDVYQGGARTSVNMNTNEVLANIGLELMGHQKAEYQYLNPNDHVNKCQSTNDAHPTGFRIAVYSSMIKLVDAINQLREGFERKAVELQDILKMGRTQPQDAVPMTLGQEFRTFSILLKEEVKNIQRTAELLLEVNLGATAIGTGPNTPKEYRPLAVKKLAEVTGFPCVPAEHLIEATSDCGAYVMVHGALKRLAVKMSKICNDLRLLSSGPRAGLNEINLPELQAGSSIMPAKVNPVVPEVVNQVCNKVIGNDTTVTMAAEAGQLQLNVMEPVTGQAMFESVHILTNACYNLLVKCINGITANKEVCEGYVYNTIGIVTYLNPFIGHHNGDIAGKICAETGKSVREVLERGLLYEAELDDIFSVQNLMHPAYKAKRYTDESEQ

As to `NCCCCNCCCN1CC1`, the results for the pIC50 in the series with HL-60 and in the series with L1210 were 6.96 and 6.82, respectively.

As for `COC1=C(C)C(=O)C2=C(C1=O)[C@@H](COC(N)=O)[C@@]1(OC)[C@H]3N[C@H]3CN21` [MITOMYCIN A], the ED50 in the series on CCRF S-180 [1] was found to be 1.1 µg/mL (≈ 3.15 µM). For the same compound, the LD50 with Mus musculus is 2.1 µg/mL.

Consider `COc1c(O)cc2c(OC)c3c(c(O)c2c1O)C(=O)CC1CC(O)(C2CN2C)CC(=O)C31O` (stereo not drawn) [AZICEMICIN A], for which the MIC in the series on Bacillus subtilis [2] is over 100 µg/mL; against Shigella flexneri it was 50 µg/mL (≈ 109 µM); against Staphylococcus aureus [3], over 100 µg/mL; against Bacillus anthracis it was 100 µg/mL (≈ 218 µM); in the series on Corynebacterium bovis, 25 µg/mL (≈ 54.4 µM); in the series on Staphylococcus aureus [4] it was over 100 µg/mL. Also, the MIC in series [5] was 100 µg/mL (≈ 218 µM); with Bacillus subtilis [6], over 100 µg/mL; against Micrococcus luteus [7], 12.5 µg/mL (≈ 27.2 µM); with Providencia rettgeri [8] it was over 100 µg/mL; with Escherichia coli [9], 100 µg/mL (≈ 218 µM); in the series with Klebsiella pneumoniae it was 100 µg/mL (≈ 218 µM). Further, the MIC with Escherichia coli [10] is 100 µg/mL (≈ 218 µM); in the series with Pseudomonas aeruginosa [11] it was over 50 µg/mL; against Proteus vulgaris it was over 100 µg/mL; in series [12], 100 µg/mL (≈ 218 µM); in the series on Micrococcus luteus [13], 50 µg/mL (≈ 109 µM); in the series with Bacillus cereus, over 100 µg/mL. Further, the MIC against Escherichia coli [14] was 100 µg/mL (≈ 218 µM); against Micrococcus luteus [15] it was 12.5 µg/mL (≈ 27.2 µM); in series [16] it was 50 µg/mL (≈ 109 µM); against Escherichia coli [17], over 100 µg/mL; in series [18] it was 100 µg/mL (≈ 218 µM); with Staphylococcus aureus [19] it was over 100 µg/mL. Besides, the MIC against Staphylococcus aureus [20] is over 100 µg/mL; with Shigella dysenteriae, 100 µg/mL (≈ 218 µM); in the series with Pseudomonas aeruginosa [21], over 100 µg/mL; in the series with Escherichia coli [22] it was over 100 µg/mL; with Escherichia coli [23], 50 µg/mL (≈ 109 µM); in the series with Proteus mirabilis, over 100 µg/mL. The MIC is 50 µg/mL (≈ 109 µM) against Mycolicibacterium vaccae, over 100 µg/mL against Staphylococcus aureus [24], 50 µg/mL (≈ 109 µM) in [25] and over 100 µg/mL in the series with Providencia rettgeri [26].

As to `O=C(O)[C@H]1N[C@@H]1C(=O)O`, the pKi on Aspartase was 4.26; in [27] it was 7.10.

On to `COC1=C(C)C(=O)C2=C(C1=O)[C@H](COC(N)=O)[C@@]1(O)[C@@H]3[C@H](CN21)N3C` (stereo partly drawn) [MITOMYCIN B], for which the ED50 in the series on CCRF S-180 [1] came out at 2.5 µg/mL (≈ 7.16 µM). The same compound returned an LD50 with Mus musculus of 4.5 µg/mL.

In the case of `COC(=O)[C@H]1N=C1/C=C/CCCCCCCCCC=C(Cl)Cl`, in the series on HCT-116, the negative-log IC50 (pIC50) was 4.61.

For `CC1(C)CC(C(=O)ONP(=O)(N2CC2)N2CC2)CC(C)(C)N1O`, the figures for the Activity (in series [28]; in the series with CCRF S-180 [29]) were 90% and 93%, respectively.

In the series with HCT-116, `COC(=O)[C@@H]1N=C1/C=C\CCCCCCCCC/C=C(/Cl)Br` had a pIC50 of 4.87.

On to `CO[C@@]12[C@H](COC(N)=O)C3=C(C(=O)C(C)=C(N)C3=O)N1C[C@@H]1N[C@@H]12` [MITOMYCIN], for which the ED50 in the series with CCRF S-180 [1] amounted to 4.4 µg/mL (≈ 13.2 µM).

On to `CC1(C)CC(CCC(=O)ONP(=O)(N2CC2)N2CC2)CC(C)(C)N1O`, for which the values for the Activity (in series [28]; in the series on CCRF S-180 [29]) were 90% and 93%, respectively.

Consider `COC(=O)[C@H]1N=C1/C=C/CCCCCCCCCC=C(Br)Br`, for which the pIC50 in the series with HCT-116 was 4.71.

As for `C=C1C2=C(C(=O)C(C)=C(N)C2=O)N2C[C@H]3[C@H](N3C)[C@]12O` (stereo partly drawn) [MITOMYCIN Z], the ED50 in the series with CCRF S-180 [1] stood at 82 µg/mL (≈ 300 µM). Besides, the LD50 in the series with Mus musculus was 210 µg/mL.

As for `Nc1nc(=O)c2c(CNC(=O)N3CC3)c[nH]c2[nH]1`, the IC50 in the series on L5178Y was found to be 9 µg/mL.

In turn, `COC(=O)[C@@H]1N=C1/C=C/CCCCCCCCC/C=C(/Cl)Br` showed a pIC50 with HCT-116 of 4.82.

On to `COC1=C(C)C(=O)C2=C(C1=O)[C@@H](COC(N)=O)[C@@]1(OC)[C@@H]3[C@H](CN21)N3C` (stereo partly drawn) [N-METHYL-MITOMYCIN A], for which the ED50 in the series on CCRF S-180 [1] came out at 1.3 µg/mL (≈ 3.58 µM). For the same compound, the LD50 in the series on Mus musculus came out at 5 µg/mL.

In the series on L5178Y, `CC(=O)NC1CCn2c1nc1c2CC(C)=C(N2CC2)C1=O` (stereo not drawn) gave a pIC50 of 5.40.

For the compound `CCCCCCCCCCCCC/C=C/C1=N[C@@H]1C(=O)OC`, the pIC50 in the series on HCT-116 is 4.74.
